Assay results from patent publication US5110976A, “Insecticidal composition comprising more than one active ingredient” (priority 1985, dated 1992).
“Also recorded” adds a separate entry of the source.

Assays:
L. decemlineata = assay: 5 EC formulation sprayed on glass plates (Table 9); type: in vivo, Colorado beetle (L. decemlineata), imagos; conditions: 48 hours
Description: From a 5 EC formulation according to Example 17 50-, 100-, 200-, 400-, 800- and 1600-fold diluted emulsions are prepared by diluting with water. 0.5 ml of the emulsions are sprayed onto glass plates whereupon after drying 10 Colorado beetles (L. decemlineata) imagos are placed on each glass plate and the insects are covered. The tests are carried out with 6 doses by carrying out 3 parallels for each dose. The killed insects are counted after 48 hours and the percental mortality rate is calculated.

[1] = Allergy and skin diseases; conditions: in vivo
Repellant effect = conditions: in vivo
T. confusum [2] = assay: Contact method, synergism between stereoisomers (Table 2); type: in vivo; conditions: Tribolium confusum, 24 h
Description: (§1) The stereoisomers are dissolved in a 1:2 mixture of mineral oil and acetone and filter paper discs (Whatman No. 1., diameter 9 cm) are impregnated with the corresponding dosage of the solution of the active ingredient. The acetone is allowed to evaporate and the insects are examined on filter paper discs placed into Petri-dishes. Three parallels are used for each dose and 15 animals are placed in each Petri-dish. Mortality rate is determined after 24 hours. The corrected mortality % data are calculated by means of the Abbot formula.
The test is carried out on T. confusum and the following results are obtained by the contact method for various active ingredient doses.
The test is carried out according to the method described in Example 20.

A. matricariae [3] = assay: Direct contact test of pupae (Table 5); type: in vivo
Description: Mature pupae of A. matricariae on paprika leaves in Petri dishes are exposed to a direct spray of the active ingredients.
Two or three days before emergence paprika leaves with parasitized pupae are used. The leaves are laid on filter paper in a plastic Petri dish The filter paper is moistened.
Application of treatment: See Example 23.
The pieces of leaf are transferred after treatment to clean Petri dish bottoms The trays are stored in a clinic chamber at 20° C. temperature, 70% relative humidity and a light-dark cycle of […]. Surviving pupae hatch after 2-3 days. The numbers of hatched and dead pupae are counted.

Lucilia sericata = assay: Impregnated filter paper disc contact test, mortality (Table 1); type: in vivo, sheep maggot fly (Lucilia sericata), imago; conditions: for mortality at 20 µg/disc / mortality at 70 µg/disc / mortality at 220 µg/disc / mortality at 670 µg/disc / mortality at 2000 µg/disc / mortality at 6000 µg/disc: Lucilia sericata, 24 hours, Abbot corrected; for mortality at 20 µg/disc: 0.02 mg/disc; for mortality at 70 µg/disc: 0.07 mg/disc; for mortality at 220 µg/disc: 0.22 mg/disc; for mortality at 670 µg/disc: 0.67 mg/disc; for mortality at 2000 µg/disc: 2.0 mg/disc; for mortality at 6000 µg/disc: 6.0 mg/disc
Description: as §1

T. confusum [4] = assay: Topical LD50 (Table 3); type: in vivo, 1-2 weeks' old imagos
Description: In Table 3 the LD50 values of the Ig and Ii isomers and those of the Ib isomer-pair are disclosed. The data are topically measured.
The active ingredients are dissolved in 2-ethoxyethanol (cellosolve) and 0.3 μl droplets of the solutions are applied onto the dorsal cuticulum of 3-5 days' old female house flies. 10 animals are used and 2 parallels are carried out for each dose. The tests are carried out for 5 dose levels between activity limits of 0% and 100%. After treatment the flies are placed into glass vials. Mortality is determined after 24 hours. Data are transformed to log10 dosage and probit mortality. LD50 and confidence interval values are calculated by linear regression analysis of the log-probit data. The expected values required for the calculation of synergism are obtained by means of harmonic average. The synergistic factor is the quotient of the expected and measured values.
The active ingredients are dissolved in 2-ethoxyethanol and 0.3 μl droplets of the solutions are applied onto the abdominal side of 1-2 weeks' old imagos. Treatment is carried out with 2 parallels and 20 animals for each dose by using 5 dose levels in the range between activity limits of 0% and 100%. Evaluation and determination of LD50 values and synergistic factors are carried out as described in Example 21.

[5] = tested on: useful entomophages and parasites; assay: Damage to useful entomophages and parasites; conditions: in vivo
T. confusum [6] = assay: Contact test with piperonyl butoxide (Table 17); type: in vivo, flour-beetle (T. confusum), imagos; conditions: for mortality at 25 µg/disc / mortality at 50 µg/disc / mortality at 100 µg/disc / mortality at 200 µg/disc / mortality at 400 µg/disc: Tribolium confusum, 24 h, PBO, where added, 0.5 mg/disc; for mortality at 25 µg/disc: 0.025 mg/disc; for mortality at 50 µg/disc: 0.05 mg/disc; for mortality at 100 µg/disc: 0.1 mg/disc; for mortality at 200 µg/disc: 0.2 mg/disc; for mortality at 400 µg/disc: 0.4 mg/disc
Description: The active ingredient is dissolved in a 1:2 mixture of oil and acetone; filter paper discs (Whatman No. 1, diameter 9 cm) are impregnated with the solutions of the corresponding stereoisomers and enantiomer-pairs, respectively. The acetone is allowed to evaporate, whereupon the insects are exposed to filter papers discs placed in Petri-dishes. Three parallels are used on each dose and 15 insects are placed into each Petri-dish. The percental mortality is determined after 24 hours. The corrected percent mortality is calculated by means of the Abbot Formula.
Imagos of flour-beetle (T. confusum) are treated in an analogous manner to Example 41. As synergist piperonyl butoxide is used in a dose of 0.5 mg/disc.

A. matricariae [7] = assay: Direct contact test on pupae (Table 26); type: in vivo
Description: Mature pupae of A. matricariae on paprika leaves in Petri-dishes are exposed to a direct spray of the active ingredients. Two or three days before emergence paprika leaves with parasitized pupae are used. The leaves are laid on moistened filter paper in a plastic Petri-dish.
Application of treatment: See Example 57.
The pieces of leaf are transferred after treatment to clean Petri-dish bottoms. The trays are stored in a climatic chamber at 20° C. temperature, 70% relative humidity and a light-dark cycle of 16-8 h. Surviving pupae hatch after 2-3 days. The numbers of hatched and dead pupae are counted.

Colorado potato beetle = assay: Plot field test on Colorado potato beetle (Table 24); type: in vivo, adults; conditions: 10 g active ingredients/ha
Description: The treatments are performed on a 25 m^2 plot strongly infected with Colorado potato beetle. 10 plants per plot are specially marked on which the Colorado potato beetles were counted previously. (During assessment of the number of pests only adults of the second Summer generation are taken into consideration, because at the point of time of the test the ratio of larvae of stages L3 and L4 is negligible). Treatment is accomplished on 25 M^2 plots at a dose of 10 g of active ingredients/ha with aqueous suspensions of the formulations according to Example 37 and three parallels are used. The test is evaluated by counting the leave insects on the marked plants. The average values of three parallel tests are disclosed in Table 24.

[8] = 0 days after treatment (control 211)
[9] = 1 day after treatment (control 206)
[10] = 3 days after treatment (control 179)
[11] = 9 days after treatment (control 183)

Molecule `CC1(C)[C@H](C=C(Cl)Cl)[C@H]1C(=O)O[C@H](C#N)c1cccc(Oc2ccccc2)c1` (relative stereo) [Ib] has a Mortality % (L. decemlineata; dilution 50x) of 100%, a Mortality % (L. decemlineata; dilution 100x) of 87% and a Mortality % (L. decemlineata; dilution 200x) of 57%. The Mortality % (L. decemlineata; dilution 400x) was 37%, the Mortality % (L. decemlineata; dilution 800x) was 13% and the Mortality % (L. decemlineata; dilution 1600x) was 0%. The “allergy and skin diseases” value [1] was “causes no allergy and skin diseases”, the repellant effect (Repellant effect) was “outstandingly good” and the mortality at 110 µg/disc (T. confusum [2]; 0.11 mg/disc) was 90%. For the same molecule, the mortality at 330 µg/disc (T. confusum [2]; 0.33 mg/disc) was 100%, the mortality at 1000 µg/disc (T. confusum [2]; 1.00 mg/disc) was 100% and the mortality at 3000 µg/disc (T. confusum [2]; 3.00 mg/disc) was 100%. It also gave a Mortality % (A. matricariae [3]; 1 ppm) of 0%, a Mortality % (A. matricariae [3]; 5 ppm) of 0% and a Mortality % (A. matricariae [3]; 10 ppm) of 0%. The Mortality % (A. matricariae [3]; 30 ppm) was 61.0%, the comparative activity (Lucilia sericata; Ib versus Ia) was “more active than enantiomer-pair Ia” and the mortality at 20 µg/disc (Lucilia sericata) was 22%. The mortality at 70 µg/disc (Lucilia sericata) was 55%, the mortality at 220 µg/disc (Lucilia sericata) was 70% and the mortality at 670 µg/disc (Lucilia sericata) was 75%. The mortality at 2000 µg/disc (Lucilia sericata) was 100%, the mortality at 6000 µg/disc (Lucilia sericata) was 100% and the LD50 expected (T. confusum [4]; harmonic average of the single isomers) was 139.3 ng/insect. The synerg. factor (T. confusum [4]; quotient of expected and measured LD50) was 2.68, the LD50 measured (T. confusum [4]; topical, abdominal side) was 51.9 ng/insect and the “damage / toxicity to useful entomophages and parasites” value [5] was “does not damage useful entomophages and parasites; also recorded: less toxic on parasites than the isomer-pair Ia”.

`CC1(C)[C@H](C(=O)O[C@H](C#N)c2cccc(Oc3ccccc3)c2)[C@@H]1C=C(Cl)Cl` (relative stereo) [Ia] gave a mortality at 25 µg/disc (T. confusum [6]) of 0%, a mortality at 50 µg/disc (T. confusum [6]) of 0% and a mortality at 100 µg/disc (T. confusum [6]) of 12%. The mortality at 200 µg/disc (T. confusum [6]) was 53%, the mortality at 400 µg/disc (T. confusum [6]) was 96% and the Mortality % (A. matricariae [7]; 1 ppm) was 0%. It also gave a Mortality % (A. matricariae [7]; 5 ppm) of 0%, a Mortality % (A. matricariae [7]; 10 ppm) of 12.5% and a Mortality % (A. matricariae [7]; 33 ppm) of 77.0%. For the same molecule, the “Average number of live insects/10 plants” value (Colorado potato beetle; [8]) was 171, the “Average number of live insects/10 plants” value (Colorado potato beetle; [9]) was 11 and the “Average number of live insects/10 plants” value (Colorado potato beetle; [10]) was 9. The “Average number of live insects/10 plants” value (Colorado potato beetle; [11]) was 25, the mortality at 20 µg/disc (Lucilia sericata) was 0% and the mortality at 70 µg/disc (Lucilia sericata) was 30%. It also gave a mortality at 220 µg/disc (Lucilia sericata) of 29%, a mortality at 670 µg/disc (Lucilia sericata) of 57% and a mortality at 2000 µg/disc (Lucilia sericata) of 60%. It also gave a mortality at 6000 µg/disc (Lucilia sericata) of 65%.

In the case of `CC1(C)C(C=C(Cl)Cl)C1C(=O)OC(C#N)c1cccc(Oc2ccccc2)c1` (stereo not drawn) [Ia:Ib = 4:6], the “synergizability with piperonyl butoxide” value (T. confusum [6]; Ia:Ib=4:6 mixture versus Ia) is reported as “can be synergized to a larger extent than enantiomer Ia”, the mortality at 25 µg/disc (T. confusum [6]) is reported as 0% and the mortality at 50 µg/disc (T. confusum [6]) is reported as 18%. For the same molecule, the mortality at 100 µg/disc (T. confusum [6]) was 57%, the mortality at 200 µg/disc (T. confusum [6]) was 90% and the mortality at 400 µg/disc (T. confusum [6]) was 100%. It also gave a Mortality % (A. matricariae [7]; 1 ppm) of 0%, a Mortality % (A. matricariae [7]; 5 ppm) of 0% and a Mortality % (A. matricariae [7]; 10 ppm) of 0%. The Mortality % (A. matricariae [7]; 33 ppm) was 14.3%, the “Average number of live insects/10 plants” value (Colorado potato beetle; [8]) was 213 and the “Average number of live insects/10 plants” value (Colorado potato beetle; [9]) was 8. For the same molecule, the “Average number of live insects/10 plants” value (Colorado potato beetle; [10]) was 4 and the “Average number of live insects/10 plants” value (Colorado potato beetle; [11]) was 22.
